As a reminder, the EC50 is the concentration giving half of the maximal effect. High values mean weaker potency, low ones greater potency. Broadly, the Ki is a measure of affinity in units of concentration, obtained from inhibition or displacement.

The record followed here is patent US20100331305A1, “OXO-HETEROCYCLE FUSED PYRIMIDINE COMPOUNDS, COMPOSITIONS AND METHODS OF USE” (Genentech, Inc., priority 2009, published 2010).

The test system of one assay is PC3 cells. Nature of the assay: In vitro cell proliferation assay. The format is cell-based, human. To be noted: Homo sapiens, PC-3, with PC3 cells; values tied to compounds by order of Table 1. The protocol:
c. In Vitro Cell Proliferation Assay Efficacy of Formula I compounds were measured by a cell proliferation assay employing the following protocol: 1. An aliquot of 20 μl of cell culture containing about 10^3 cells (PC3 or MDAMB361.1) in medium was deposited in each well of a 384-well, opaque-walled plate. 2. Control wells were prepared containing medium and without cells; Cells were allowed to settle overnight. 3. The compound was added to the experimental wells and incubated for 3 days. 4. The plates were equilibrated to room temperature for approximately 30 minutes. 5. A volume of CellTiter-Glo Reagent equal to the volume of cell culture medium present in each well was added. […] The contents were mixed for 2 minutes on an orbital shaker to induce cell lysis. 7. The plate was incubated at room temperature for 20 minutes to stabilize the luminescence signal. 8. Luminescence was recorded and reported in graphs as RLU=relative luminescence units. Alternatively, cells were seeded at optimal density in a 96 well plate and incubated for 4 days in the presence of test compound. Alamar BlueTM was subsequently added to the assay medium, and cells were incubated for 6 h before reading at 544 nm excitation, 590 nm emission. EC50 values were calculated using a sigmoidal dose response curve fit.

Assay [1] addresses mTOR enzyme (mTOR(1360-2549)+GBL) (Homo sapiens, UniProt P42345). Nature of the assay: In vitro mTOR kinase assay (TR-FRET). The format is biochemical. The following applies: 0.25 nM mTOR+GBL, 8 uM ATP; values tied to compounds by order of Table 1; 'x or y' = two alternative values for separated diastereomers of unassigned stereochemistry; read-out: activity level (Ki) in the mTOR kinase assay. The source says:
a. In Vitro mTOR Kinase Assay
The reaction is stopped by an addition of a Terbium-labeled phospho-specific antibody, e.g., Tb-labeled anti-p4E-BP1 T37/T46, (Invitrogen, product #PR8835A), EDTA, and TR-FRET buffer solution (Invitrogen, Product #PR3756B). Product formation is detected by way of time-resolved fluorescence resonance energy transfer (TR-FRET), which occurs when the phosphorylated substrate and labeled antibody are in close proximity due to phospho-specific binding. Enzymatic activity is measured as an increase in TR-FRET signal using a Perkin Elmer Envision plate reader.
Compound activity is tested in 10 point dose curves starting at the highest final concentration of 10 uM. They are serially diluted in 100% DMSO prior to further dilution with assay buffer. […] 8 μL of solution containing 2 nM Tb-anti-p4E-BP1 antibody & 10 mM EDTA diluted TR-FRET buffer is then added and incubated for 30 minutes to stop the reaction. The plate is scanned with the Envision plate reader. Ki values are calculated in Assay Explorer using the Morrison ATP-competitive tight binding equation for Ki apparent determination.

Sequence of mTOR enzyme (mTOR(1360-2549)+GBL) (P42345 1360-2549, species assumed): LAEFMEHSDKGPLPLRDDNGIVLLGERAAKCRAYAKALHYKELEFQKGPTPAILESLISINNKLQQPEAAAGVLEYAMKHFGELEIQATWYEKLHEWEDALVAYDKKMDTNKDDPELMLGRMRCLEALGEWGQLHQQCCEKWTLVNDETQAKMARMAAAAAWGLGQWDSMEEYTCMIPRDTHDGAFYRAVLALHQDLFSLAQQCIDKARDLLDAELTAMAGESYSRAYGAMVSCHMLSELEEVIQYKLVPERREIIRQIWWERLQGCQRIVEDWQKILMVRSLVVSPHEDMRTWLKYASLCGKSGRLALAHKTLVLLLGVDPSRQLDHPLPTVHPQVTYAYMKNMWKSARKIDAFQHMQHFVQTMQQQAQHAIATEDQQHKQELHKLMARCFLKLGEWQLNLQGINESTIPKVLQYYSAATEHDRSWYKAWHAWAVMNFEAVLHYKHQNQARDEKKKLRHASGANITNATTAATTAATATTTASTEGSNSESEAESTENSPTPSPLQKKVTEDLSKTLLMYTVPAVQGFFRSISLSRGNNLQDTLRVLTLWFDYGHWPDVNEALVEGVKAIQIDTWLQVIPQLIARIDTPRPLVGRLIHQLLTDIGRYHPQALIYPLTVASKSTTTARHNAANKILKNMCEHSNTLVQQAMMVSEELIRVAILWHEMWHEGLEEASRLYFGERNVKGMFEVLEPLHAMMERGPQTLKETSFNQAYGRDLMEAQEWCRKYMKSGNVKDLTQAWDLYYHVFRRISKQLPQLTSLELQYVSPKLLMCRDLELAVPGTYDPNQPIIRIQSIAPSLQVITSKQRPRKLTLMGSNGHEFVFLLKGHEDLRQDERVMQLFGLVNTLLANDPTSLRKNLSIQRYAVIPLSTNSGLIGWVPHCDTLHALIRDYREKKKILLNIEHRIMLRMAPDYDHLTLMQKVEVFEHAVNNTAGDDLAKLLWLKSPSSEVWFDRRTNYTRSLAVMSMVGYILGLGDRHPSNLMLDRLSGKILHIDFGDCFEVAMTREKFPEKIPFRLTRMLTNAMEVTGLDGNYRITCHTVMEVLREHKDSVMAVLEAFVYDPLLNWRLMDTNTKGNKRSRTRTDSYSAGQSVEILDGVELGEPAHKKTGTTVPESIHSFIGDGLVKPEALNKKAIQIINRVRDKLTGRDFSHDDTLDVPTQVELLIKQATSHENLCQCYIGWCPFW
Sequence of mTOR enzyme (mTOR(1360-2549)+GBL) (Q9BVC4 whole entry partner, species assumed): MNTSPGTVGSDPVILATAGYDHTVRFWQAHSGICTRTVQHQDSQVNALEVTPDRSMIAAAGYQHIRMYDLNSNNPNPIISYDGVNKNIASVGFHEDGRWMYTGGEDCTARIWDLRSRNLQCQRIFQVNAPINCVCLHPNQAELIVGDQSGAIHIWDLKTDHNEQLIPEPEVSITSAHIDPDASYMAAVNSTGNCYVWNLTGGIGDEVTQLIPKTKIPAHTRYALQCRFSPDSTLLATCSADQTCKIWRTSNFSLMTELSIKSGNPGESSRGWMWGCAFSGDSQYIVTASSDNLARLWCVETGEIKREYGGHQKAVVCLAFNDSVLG

For the compound `CCNC(=O)Nc1ccc(-c2nc3c(c(N4CCOC[C@@H]4CC)n2)CCCO3)cc1` [Example 2, (S)-1-ethyl-3-(4-(4-(3-ethylmorpholino)-6,7-dihydro-5H-pyrano[2,3-d]pyrimidin-2-yl)phenyl)urea], the EC50 in the assay on PC3 cells amounted to 144 nM. Moreover, in assay [1], the Ki is 1 nM.

In the case of `CCNC(=O)Nc1ccc(-c2nc3c(c(N4C[C@@H]5C[C@H]4CO5)n2)CCCO3)cc1` [Example 3, 1-(4-(4-((1S,4S)-2-oxa-5-azabicyclo[2.2.1]heptan-5-yl)-6,7-dihydro-5H-pyrano[2,3-d]pyrimidin-2-yl)phenyl)-3-ethylurea], in the assay on PC3 cells, the EC50 was 1200 nM. Further, the Ki in assay [1] is 22 nM.

Turning to `CC[C@H]1COCCN1c1nc(-c2ccc(Nc3nccc(=O)[nH]3)cc2)nc2c1COCC2` [Example 4, (S)-2-(4-(4-(3-ethylmorpholino)-7,8-dihydro-5H-pyrano[4,3-d]pyrimidin-2-yl)phenylamino)pyrimidin-4(3H)-one], in the assay with PC3 cells, the EC50 is 30 nM. In addition, the Ki in assay [1] came out at 1 nM.

`CC[C@H]1COCCN1c1nc(-c2ccc(Nc3cccc(=O)[nH]3)cc2)nc2c1COCC2` [Example 5, (S)-6-(4-(4-(3-ethylmorpholino)-7,8-dihydro-5H-pyrano[4,3-d]pyrimidin-2-yl)phenylamino)pyridin-2(1H)-one] had an EC50 in the assay with PC3 cells of 297 nM. The Ki in assay [1] was 2 nM.

Take `CCNC(=O)Nc1ccc(-c2nc3c(c(N4CCOC[C@@H]4C)n2)CCOC3)cc1` [Example 13 al, (S)-1-ethyl-3-(4-(4-(3-methylmorpholino)-6,8-dihydro-5H-pyrano[3,4-d]pyrimidin-2-yl)phenyl)urea]: the EC50 in the assay on PC3 cells was 194 nM. Also, the inhibitory constant (Ki) in assay [1] was found to be 2 nM.

In the assay on PC3 cells, `CCNC(=O)Nc1ccc(-c2nc3c(c(N4CCOCC4)n2)CCC2(CC2)O3)cc1` [Example 14, 1-ethyl-3-(4-(4′-morpholino-5′,6′-dihydrospiro[cyclopropane-1,7′-pyrano[2,3-d]pyrimidine]-2′-yl)phenyl)urea] displayed an EC50 of 84 nM. Also, the Ki in assay [1] amounted to 3 nM.

In the assay on PC3 cells, `C[C@H]1COCCN1c1nc(-c2ccc(NC(=O)NCCO)cc2)nc2c1COCC2` [Example 24, (S)-1-(2-hydroxyethyl)-3-(4-(4-(3-methylmorpholino)-7,8-dihydro-5H-pyrano[4,3-d]pyrimidin-2-yl)phenyl)urea] came in with an EC50 of 541 nM. In addition, in assay [1], the Ki worked out at 3 nM.

Take `C[C@H]1COCCN1c1nc(-c2ccc(NC(=O)NC3COC3)cc2)nc2c1COCC2` [Example 25, (S)-1-(4-(4-(3-methylmorpholino)-7,8-dihydro-5H-pyrano[4,3-d]pyrimidin-2-yl)phenyl)-3-(oxetan-3-yl)urea]: the EC50 in the assay on PC3 cells was 1500 nM. The Ki in assay [1] is 13 nM.

As for `C[C@H]1COCCN1c1nc(-c2ccc(NC(=O)NC3CCC3)cc2)nc2c1COCC2` [Example 26, (S)-1-cyclobutyl-3-(4-(4-(3-methylmorpholino)-7,8-dihydro-5H-pyrano[4,3-d]pyrimidin-2-yl)phenyl)urea], the EC50 in the assay with PC3 cells was 1600 nM. In addition, in assay [1], the Ki amounted to 14 nM.

For `Cc1nnc(NC(=O)Nc2ccc(-c3nc4c(c(N5CCOC[C@@H]5C)n3)COCC4)cc2)o1` [Example 27, (S)-1-(5-methyl-1,3,4-oxadiazol-2-yl)-3-(4-(4-(3-methylmorpholino)-7,8-dihydro-5H-pyrano[4,3-d]pyrimidin-2-yl)phenyl)urea], in the assay with PC3 cells, the EC50 is 313 nM. Further, the Ki in assay [1] worked out at 26 nM.

`C[C@H]1COCCN1c1nc(-c2ccc(Nc3nccc(=O)[nH]3)cc2)nc2c1COCC2` [Example 28, (S)-2-(4-(4-(3-methylmorpholino)-7,8-dihydro-5H-pyrano[4,3-d]pyrimidin-2-yl)phenylamino)pyrimidin-4(3H)-one] displayed an EC50 in the assay with PC3 cells of 194 nM. For the same compound, the Ki in assay [1] stood at 2 nM.

`C[C@H]1COCCN1c1nc(-c2ccc(Nc3cccc(=O)[nH]3)cc2)nc2c1COCC2` [Example 29, (S)-6-(4-(4-(3-methylmorpholino)-7,8-dihydro-5H-pyrano[4,3-d]pyrimidin-2-yl)phenylamino)pyridin-2(1H)-one] came in with an EC50 in the assay on PC3 cells of 341 nM. In addition, the Ki in assay [1] turned out to be 5 nM.

As to `C[C@H]1COCCN1c1nc(-c2ccc(NC(=O)Nc3ccn(C)n3)cc2)nc2c1CCCO2` [Example 30, (S)-1-(1-methyl-1H-pyrazol-3-yl)-3-(4-(4-(3-methylmorpholino)-6,7-dihydro-5H-pyrano[2,3-d]pyrimidin-2-yl)phenyl)urea], it took 172 nM to reach a half-maximal effect in the assay with PC3 cells (EC50). For the same compound, the Ki in assay [1] worked out at 1 nM.

For the compound `C[C@H]1COCCN1c1nc(-c2ccc(NC(=O)Nc3cnn(C)c3)cc2)nc2c1CCCO2` [Example 31, (S)-1-(1-methyl-1H-pyrazol-4-yl)-3-(4-(4-(3-methylmorpholino)-6,7-dihydro-5H-pyrano[2,3-d]pyrimidin-2-yl)phenyl)urea], a half-maximal response in the assay on PC3 cells (EC50) required 57 nM. The Ki in assay [1] was 2 nM.

`C[C@H]1COCCN1c1nc(-c2ccc(NC(=O)NC3COC3)cc2)nc2c1CCCO2` [Example 32, (S)-1-(4-(4-(3-methylmorpholino)-6,7-dihydro-5H-pyrano[2,3-d]pyrimidin-2-yl)phenyl)-3-(oxetan-3-yl)urea] displayed an EC50 in the assay on PC3 cells of 325 nM. In addition, the Ki in assay [1] is 4 nM.

In the assay on PC3 cells, `C[C@H]1COCCN1c1nc(-c2ccc(NC(=O)NCCO)cc2)nc2c1CCCO2` [Example 33, (S)-1-(2-hydroxyethyl)-3-(4-(4-(3-methylmorpholino)-6,7-dihydro-5H-pyrano[2,3-d]pyrimidin-2-yl)phenyl)urea] returned an EC50 of 111 nM. Further, in assay [1], the Ki came to 1 nM.

Consider `C[C@H]1COCCN1c1nc(-c2ccc(Nc3nccc(=O)[nH]3)cc2)nc2c1CCCO2` [Example 34, (S)-2-(4-(4-(3-methylmorpholino)-6,7-dihydro-5H-pyrano[2,3-d]pyrimidin-2-yl)phenylamino)pyrimidin-4(3H)-one], for which the midpoint of the response with PC3 cells, the EC50, lay at 45 nM. In addition, the Ki in assay [1] was found to be 1 nM.

As to `C[C@H]1COCCN1c1nc(-c2ccc(Nc3cccc(=O)[nH]3)cc2)nc2c1CCCO2` [Example 35, (S)-6-(4-(4-(3-methylmorpholino)-6,7-dihydro-5H-pyrano[2,3-d]pyrimidin-2-yl)phenylamino)pyridin-2(1H)-one], a half-maximal effect in the assay with PC3 cells (EC50) was put at 236 nM. In addition, the Ki in assay [1] turned out to be 2 nM.

`O=c1ccnc(Nc2ccc(-c3nc4c(c(N5CCOCC5)n3)CCC3(CC3)O4)cc2)[nH]1` [Example 42, 2-(4-(4′-morpholino-5′,6′-dihydrospiro[cyclopropane-1,7′-pyrano[2,3-d]pyrimidine]-2′-yl)phenylamino)pyrimidin-4(3H)-one] gave an EC50 in the assay with PC3 cells of 56 nM. Moreover, the Ki in assay [1] came out at 1 nM.

On to `O=C(Nc1ccc(-c2nc3c(c(N4CCOCC4)n2)CCC2(CC2)O3)cc1)NC1COC1` [Example 43, 1-(4-(4′-morpholino-5′,6′-dihydrospiro[cyclopropane-1,7′-pyrano[2,3-d]pyrimidine]-2′-yl)phenyl)-3-(oxetan-3-yl)urea], for which, in the assay on PC3 cells, the EC50 came out at 392 nM. Also, the Ki in assay [1] was found to be 6 nM.

As for `Cn1ccc(NC(=O)Nc2ccc(-c3nc4c(c(N5CCOCC5)n3)CCC3(CC3)O4)cc2)n1` [Example 44, 1-(1-methyl-1H-pyrazol-3-yl)-3-(4-(4′-morpholino-5′,6′-dihydrospiro[cyclopropane-1,7′-pyrano[2,3-d]pyrimidine]-2′-yl)phenyl)urea], the midpoint of the response in the assay with PC3 cells, the EC50, lay at 329 nM. In assay [1], the Ki came to 2 nM.

As for `Cn1cc(NC(=O)Nc2ccc(-c3nc4c(c(N5CCOCC5)n3)CCC3(CC3)O4)cc2)cn1` [Example 45, 1-(1-methyl-1H-pyrazol-4-yl)-3-(4-(4′-morpholino-5′,6′-dihydrospiro[cyclopropane-1,7′-pyrano[2,3-d]pyrimidine]-2′-yl)phenyl)urea], in the assay on PC3 cells, the EC50 worked out at 102 nM. The Ki in assay [1] turned out to be 2 nM.

In the assay on PC3 cells, `CCNC(=O)Nc1ccc(-c2nc3c(c(N4CCOC[C@@H]4C)n2)CCC2(CC2)O3)cc1` [Example 49, (S)-1-ethyl-3-(4-(4′-(3-methylmorpholino)-5′,6′-dihydrospiro[cyclopropane-1,7′-pyrano[2,3-d]pyrimidine]-2′-yl)phenyl)urea] had an EC50 of 67 nM. The Ki in assay [1] came to 0.3 nM.

As to `C[C@H]1COCCN1c1nc(-c2ccc(NC(=O)Nc3cnn(C)c3)cc2)nc2c1CCC1(CC1)O2` [Example 50, (S)-1-(1-methyl-1H-pyrazol-4-yl)-3-(4-(4′-(3-methylmorpholino)-5′,6′-dihydrospiro[cyclopropane-1,7′-pyrano[2,3-d]pyrimidine]-2′-yl)phenyl)urea], the EC50 in the assay on PC3 cells was 29 nM. In addition, in assay [1], the Ki amounted to 1 nM.
